Assay results taken from US20220135942A1, “CULTURED TISSUE AND METHOD FOR PRODUCING SAME” (NAGASAKI UNIVERSITY, priority 2019, published 2022).

Experiments:
[1] = system: bile ducts formed from the rCLiPs cocultured with rat primary hepatocytes; experiment: CLF transfer to bile ducts in coculture of rCLiP bile ducts and rat primary hepatocytes; type: in vitro ADME; conditions: rat primary hepatocytes cocultured 3 days; observed 2, 24 and 72 hours after CLF addition; excitation 480 nm; FIG. 3A
Source text: (§1) It can be confirmed by various methods using labeled compounds that the glandular cavities and the ducts are functionally connected in the cultured tissue produced by the above-mentioned method. For example, a compound obtaining by labeling a compound the behavior of which in the glandular cavities and the ducts is known and which are objects to be confirmed can be used. The functional connection between the glandular cavities and the ducts can be specifically confirmed by confirming whether the labeled secretion or the analogue thereof is incorporated into the glandular cells, and the labeled secretion or the analogue thereof secreted from the glandular cells can be detected from the ducts. […] When CLF is incorporated into the hepatocytes cocultured with the bile ducts, and the fluorescence of CLF is detected from the bile ducts, it can be confirmed that CLF is secreted from the hepatocytes to the biliary canaliculi, and the secreted CLF moves to the bile ducts, namely that the biliary canaliculi and the bile ducts are functionally connected. […]
One day after the inoculation of the primary hepatocytes, the medium was exchanged for the BIM-2 medium. […] The appearances of the cells 2 hours, 24 hours, and 72 hours after the addition of the CLF solution were observed through a phase-contrast microscope and a fluorescence microscope (FIG. 3A). […]

[2] = system: bile ducts formed from the rCLiPs cocultured with human hepatocytes; experiment: CLF transfer to bile ducts in coculture of rCLiP bile ducts and human hepatocytes; type: in vitro ADME; conditions: human hepatocytes cocultured 3 days; 30 min incubation in HBSS containing CLF; observed immediately, 4 and 24 hours after washing; excitation 470 nm; FIG. 6A
Source text: as §1
One day after the inoculation of the human hepatocytes, the medium was exchanged for BIM-2 medium. […] After the incubation, the cells were washed with MSS not containing CLF, and the appearances of the cells immediately, 4 hours, and 24 hours after washing were observed through a phase-contrast microscope and a fluorescence microscope (FIG. 6A). […]

[3] = system: bile ducts formed from rCLiPs only; experiment: CLF added to rCLiP bile ducts only, without primary hepatocytes (negative control, Example 1); type: in vitro ADME, rat; conditions: no hepatocytes, 2 hours after CLF addition, FIG. 3B
Procedure: The appearance 2 hours after the addition of the CLF solution was observed through the phase-contrast microscope and the fluorescence microscope (FIG. 3B).

[4] = system: bile ducts formed from rCLiPs only; experiment: CLF incubation of rCLiP bile ducts only, without human hepatocytes (negative control, Example 2); type: in vitro ADME, rat; conditions: no human hepatocytes, 30 min incubation in HBSS containing CLF, observed immediately, 4 and 24 hours after washing, FIG. 6B
Procedure: After the incubation, the cells were washed with MSS not containing CLF, and the appearances of the cells immediately, 4 hours, and 24 hours after the washing were observed through a phase-contrast microscope and a fluorescence microscope (FIG. 6B).

CC(CCC(=O)NC(CCCCNC(=S)Nc1ccc(-c2c3ccc(=O)cc-3oc3cc(O)ccc23)c(C(=O)O)c1)C(=O)O)C1CCC2C3C(O)CC4CC(O)CCC4(C)C3CC(O)C12C (stereo not shown) [CLF, cholyl-lysyl-fluorescein]
CLF fluorescence in bile ducts (secretion to biliary canaliculi and movement to bile ducts) [1]: fluorescence was detected from the bile ducts | CLF fluorescence in bile ducts (secretion to biliary canaliculi and movement to bile ducts) [2]: fluorescence was detected from the bile ducts | CLF fluorescence in bile ducts [3]: fluorescence was not, meanwhile, detected | CLF fluorescence in bile ducts [4]: fluorescence was not, meanwhile, detected
